Measured values reported in US20240368133A1, “Compounds for the Treatment of Pain, in Particular, Neuropathic Pain, and/or Other Diseases or Disorders that are Associated with AT2R and/or AT2R Mediated Signaling” (Confo Therapeutics N.V., priority 2021, published 2024).

Assays:
[1] = Liver microsomal stability, human; assay type: in vitro ADME; details: pH 7.4, liver microsomes
Procedure: Microsomal incubations were carried out in 96-well plates in 5 aliquots of 40 μL each (one for each time point). Liver microsomal incubation medium contained PBS (100 mM, pH 7.4), MgCl2 (3.3 mM), NADPH (3 mM), glucose-6-phosphate (5.3 mM), glucose-6-phosphate dehydrogenase (0.67 units/ml) with 0.42 mg of liver microsomal protein per ml. Control incubations were performed replacing the NADPH-cofactor system with PBS. Test compound (2 μM, final solvent concentration 1.6%) was incubated with microsomes at 37° C., shaking at 100 rpm. Incubations were performed in duplicates. Five time points over 40 minutes have been analyzed. The reactions were stopped by adding 12 volumes of 90% acetonitrile-water to incubation aliquots, followed by protein sedimentation by centrifuging at 5500 rpm for 3 minutes. […]. Supernatants were analyzed using the HPLC system coupled with tandem mass spectrometer (API3000 PE Sciex). Acquisition and analysis of the data were performed using Analyst 1.5.2 software (PE Sciex). The elimination constant (kel), half-life (t½) and intrinsic clearance (Clint) were determined in plot of […] versus time, using linear regression analysis:
A 10 mM stock solution of compound in DMSO is diluted three-fold in DMSO. This pre-diluted compound solution is then further diluted to 2 μM in a 50 mM phosphate buffer (PBS, pH 7.4) and pre-warmed at 37° C. This compound dilution is mixed F2 with microsomal/cofactor mix at 37° C. under shaking at 300 rpm. Final reaction conditions are: 100 μL incubation volume, 1 μM of test compound (in duplicate), <0.1% DMSO, 0.5 mg/mL microsomes, 0.6 U/mL Glucose-6-phosphate-dehydrogenase (G6PDH, Roche, 10127671001), 3.3 mM MgCl2 (Sigma, M2670), 3.3 mM glucose-6-phosphate (Sigma, G-7879) and 1.3 mM NADP+ (Sigma, N-0505).
After 60 min of incubation at 300 rpm and 37° C., the reaction was stopped with 3 volumes of STOP solution (acetonitrile/MeOH 2/1 with diclofenac as internal standard). For the time point zero, 3 volumes of STOP solution were added to the compound dilution before the microsome mix was added. Six time points over 60 minutes have been analyzed. The samples of all time points were centrifuged, filtered and the supernatant analyzed by LCMS/MS (systems API4000).
The instrument responses (peak areas/IS peak area) were referenced to the zero time-point samples (considered as 100%) in order to determine the percentage of compound remaining.
Testosterone (1 μM) and Propranolol and Caffeine (1 μM) were used as reference compounds, being unstable and stable compounds respectively. If the microsomal stability values for these controls are not in the range determined by the historical data, the assay is not validated. The solubility of the compound in the final test concentration in 50 mM buffer pH 7.4 is checked by microscope to indicate whether precipitation is observed or not. If a precipitate is observed, no data of microsomal stability is generated.

[2] = target: human AT1R (Homo sapiens (Human), UniProt P30556); assay: Counterscreen radioligand binding assay, displacement of 125I-[Sar1, Ile8]-Angiotensin II, hAT1R WT; details: for inhibition at 1 µM / inhibition at 10 µM: 125I-[Sar1, Ile8]-Ang II, semi-quantitative score; for inhibition at 1 µM: compound at 1 μM, read-out: % Displaced radioligand at 1 μM; for inhibition at 10 µM: compound at 10 μM, read-out: % Displaced radioligand at 10 μM; for IC50: HEK-293 cell membranes, read-out: Binding affinity On hAT1R IC50
Chain of human AT1R (P30556 whole entry): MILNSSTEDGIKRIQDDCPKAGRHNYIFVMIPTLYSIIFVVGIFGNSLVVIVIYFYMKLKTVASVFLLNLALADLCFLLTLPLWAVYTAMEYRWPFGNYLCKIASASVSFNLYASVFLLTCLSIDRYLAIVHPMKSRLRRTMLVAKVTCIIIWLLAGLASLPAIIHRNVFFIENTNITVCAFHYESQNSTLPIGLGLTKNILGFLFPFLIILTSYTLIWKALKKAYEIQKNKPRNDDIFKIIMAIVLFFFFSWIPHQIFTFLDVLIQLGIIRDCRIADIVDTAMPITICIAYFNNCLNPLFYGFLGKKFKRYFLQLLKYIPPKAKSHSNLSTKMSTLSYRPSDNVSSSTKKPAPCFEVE
In short: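 Compounds displaced 0.05 nM 125I-[Sar1, Ile8]-Ang II from human AT1R in HEK-293 membranes (1 h, 25° C; Tris/MgCl2/EDTA/BSA buffer, pH 7.4). Readout was filtration and scintillation counting, with non-specific binding set by 10 μM [Sar1]-Ang II. Values are % displacement at 1 μM and […], or IC50 from eight-point four-parameter fits.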

Structure (SMILES)	microsomal CLint [1] [µL/min/mg]	inhibition at 1 µM [2] [%]	inhibition at 10 µM [2] [%]	IC50 [2] [µM]
CCCCOC(=O)NS(=O)(=O)c1ccc(C(F)(F)F)cc1N1CCN(Cc2nc3ccccc3n2C)CC1 [Compound A-09, butyl N-[2-[4-[(1-methylbenzimidazol-2-yl)methyl]piperazin-1-yl]-4-(trifluoromethyl)phenyl]sulfonylcarbamate]	37	< 30	< 30	36.5
CCCCNC(=O)NS(=O)(=O)c1ccc(C(F)(F)F)cc1N1CCN(Cc2nc3ccccc3n2C)CC1 [Compound A-10, 1-butyl-3-[2-[4-[(1-methylbenzimidazol-2-yl)methyl]piperazin-1-yl]-4-(trifluoromethyl)phenyl]sulfonyl-urea]	99	< 30	< 30	
CCCCNC(=O)NS(=O)(=O)c1ccc(C)cc1N1CCN(Cc2nc3ccccc3n2C)CC1 [Compound A-12, 1-butyl-3-[4-methyl-2-[4-[(1-methylbenzimidazol-2-yl)methyl]piperazin-1-yl]phenyl]sulfonyl-urea]	259	< 30	< 30	
CC(C)Cc1ccc(-c2nn[nH]n2)c(N2CCN(Cc3nc4ccccc4n3C)CC2)c1 [Compound A-20, 2-[[4-[5-isobutyl-2-(2H-tetrazol-5-yl)-phenyl]piperazin-1-yl]methyl]-1-meth-yl-benzimidazole]	24	< 30	< 30	49.7
CC(C)Oc1ccc(-c2nn[nH]n2)c(N2CCN(Cc3nc4ccccc4n3C)CC2)c1 [Compound A-24, 2-[[4-[5-isopropoxy-2-(2H-tetrazol-5-yl)phenyl]piperazin-1-yl]methyl]-1-methyl-benzimidazole]	8	< 30	< 30	
CC(C)Cc1ccc(-c2nn[nH]n2)c(N2CCN(Cc3nc4ccccc4c(=O)[nH]3)CC2)c1 [Compound A-31, 2-[[4-[5-isobutyl-2-(2H-tetrazol-5-yl)phenyl]piperazin-1-yl]methyl]-3H-quinazolin-4-one]	8	< 30	< 30	
CC(C)Oc1ccc(-c2nn[nH]n2)c(N2CCN(Cc3nc4ccccc4c(=O)[nH]3)CC2)c1 [Compound A-32]	10	< 30	< 30	
CC(C)Oc1ccc(-c2nn[nH]n2)c(N2CCN(Cc3nc4ccccc4s3)CC2)c1 [Compound A-51, 2-[[4-[5-isoprop-oxy-2-(2H-tetrazol-5-yl)phenyl]piper-azin-1-yl]methyl]-1,3-benzothiazole]	12	< 30	< 30	55
Cc1cc(CN2CCN(c3cc(CC(C)C)ccc3-c3nn[nH]n3)CC2)no1 [Compound A-82, 3-[[4-[5-isobutyl-2-(2H-tetrazol-5-yl)phenyl]piperazin-1-yl]methyl]-5-methyl-isoxazole]	15	< 30	< 30	
CC(C)Cc1ccc(-c2nn[nH]n2)c(N2CCN(Cc3nccn3C)CC2)c1 [Compound A-83, 1-[5-isobutyl-2-(2H-tetrazol-5-yl)-phenyl]-4-[(1-meth-ylimidazol-2-yl)-methyl]piperazine]	6	< 30	< 30	
CC(C)Cc1ccc(-c2nn[nH]n2)c(N2CCN(Cc3ccnn3C)CC2)c1 [Compound A-84, 1-[5-isobutyl-2-(2H-tetrazol-5-yl)phenyl]-4-[(1-methylpyrazol-5-yl)methyl]piperazine]	40	< 30	< 30	
CC(C)Cc1ccc(-c2nn[nH]n2)c(N2CCN(Cc3ncccn3)CC2)c1 [Compound A-88]	6	< 30	< 30	
CC(C)Cc1ccc(-c2nn[nH]n2)c(N2CCN(Cc3cccnn3)CC2)c1 [Compound A-90, 3-[[4-[5-isobutyl-2-(2H-tetrazol-5-yl)phenyl]piperazin-1-yl]methyl]pyridazine]	7	< 30	< 30	
CC(C)Cc1cc(F)c(-c2nn[nH]n2)c(N2CCN(Cc3cccnn3)C(C)C2)c1 (stereo not shown) [Compound A-173, 3-[[4-[3-fluoro-5-isobutyl-2-(2H-tetrazol-5-yl)phenyl]-2-methyl-piperazin-1-yl]methyl]pyridazine]	4	< 30	< 30	
CC(C)Cc1cc(F)c(-c2nn[nH]n2)c(N2CCN(Cc3cccnn3)[C@@H](C)C2)c1 [Compound A-174, 3-[[(2S)-4-[3-fluoro-5-isobutyl-2-(2H-tetrazol-5-yl)phenyl]-2-methyl-piperazin-1-yl]methyl]pyridazine]	< 6.6	< 30	< 30	
CCC1CN(c2cc(CC(C)C)cc(F)c2-c2nn[nH]n2)CCN1Cc1cccnn1 (stereo not shown) [Compound A-178, 3-[[2-ethyl-4-[3-fluoro-5-isobutyl-2-(2H-tetrazol-5-yl)phenyl]piperazin-1-yl]methyl]pyridazine]	20	< 30	< 30	
CCC1CN(Cc2cccnn2)CCN1c1cc(CC(C)C)cc(F)c1-c1nn[nH]n1 (stereo not shown) [Compound A-181, 3-[[3-ethyl-4-[3-fluoro-5-isobutyl-2-(2H-tetrazol-5-yl)phenyl]piperazin-1-yl]methyl]pyridazine]	12	< 30	< 30	
CC(C)Cc1cc(F)c(-c2nn[nH]n2)c(N2CC(C)N(Cc3cccnn3)CC2C)c1 (stereo not shown) [Compound A-183, 3-[[4-[3-fluoro-5-isobutyl-2-(2H-tetrazol-5-yl)phen-yl]-2,5-dimethyl-piperazin-1-yl]-methyl]pyridazine]	7	< 30	< 30	
CC(C)Cc1cc(F)c(-c2nn[nH]n2)c(N2CCN(Cc3ccccn3)[C@@H](C)C2)c1 [Compound A-217, (2S)-4-[3-fluoro-5-isobutyl-2-(2H-tetrazol-5-yl)phenyl]-2-methyl-1-(2-pyridylmethyl)piperazine]	< 6.6	< 30	30 to 50	17.5
Cc1cnc(CN2CCN(c3cc(CC(C)C)cc(F)c3-c3nn[nH]n3)C[C@@H]2C)s1 [Compound A-223, 2-[[(2S)-4-[3-fluoro-5-isobutyl-2-(2H-tetrazol-5-yl)phenyl]-2-methyl-piperazin-1-yl]methyl]-5-methyl-thiazole]	18.2	< 30	< 30	
